We go through 17 molecules from BindingDB's records for doi:10.1016/s0960-894x(99)00197-3 (The R. W. Johnson Pharmaceutical Research Institute, 1999).

Where a SMILES comes first, the peptide text is derived from it. [ ]: non-standard residue; d: D form. The star is where a group is joined. Cha = N[C@@H](CC1CCCCC1)C(=O)O; Nicotinoyl = O=C(c1cccnc1)*; 3Abz = Nc1cccc(C(=O)O)c1

As usually defined, the EC50 is the concentration giving half of the maximal effect.

This experiment is described as follows: Inhibition of [3H]S-(p-F-Phe)-Har-L-Har-KY-NH2 binding to Thrombin receptor 1 (PAR-1) on membranes from CHRF cells.

As to `N=C(N)NCCC[C@H](NC(=O)[C@H](CC1CCCCC1)NC(=O)c1cccnc1N)C(=O)N[C@@H](Cc1ccccc1)C(N)=O` [2-Amino-N-{(S)-1-[(S)-1-((S)-1-carbamoyl-2-phenyl-ethylcarbamoyl)-4-guanidino-butylcarbamoyl]-2-cyclohexyl-ethyl}-nicotinamide], the midpoint of the response, the EC50, lay at 8 µM. The molecule `N=C(N)NCCC[C@H](NC(=O)[C@H](CC1CCCCC1)NC(=O)c1cccc(N)c1)C(=O)N[C@@H](Cc1ccccc1)C(N)=O` [3-Amino-N-{(S)-1-[(S)-1-((S)-1-carbamoyl-2-phenyl-ethylcarbamoyl)-4-guanidino-butylcarbamoyl]-2-cyclohexyl-ethyl}-benzamide] (H-[3Abz][Cha]RF-NH2) registered an EC50 of 2.9 µM.

Turning to `N=C(N)NCCC[C@H](NC(=O)[C@H](CC1CCCCC1)NC(=O)c1nnc(NC(=O)C=Cc2c[nH]c3ccccc23)[nH]1)C(=O)N[C@@H](Cc1ccccc1)C(N)=O` [5-((E)-3-1H-Indol-3-yl-acryloylamino)-1H-[1,2,4]triazole-3-carboxylic acid {(S)-1-[(S)-1-((S)-1-carbamoyl-2-phenyl-ethylcarbamoyl)-4-guanidino-butylcarbamoyl]-2-cyclohexyl-ethyl}-amide], the EC50 was 14 µM. Molecule `N=C(N)NCCC[C@H](NC(=O)[C@H](CC1CCCCC1)NC(=O)c1nnc(NC(=O)C=Cc2cccs2)[nH]1)C(=O)N[C@@H](Cc1ccccc1)C(N)=O` [5-((E)-3-Thiophen-2-yl-acryloylamino)-1H-[1,2,4]triazole-3-carboxylic acid {(S)-1-[(S)-1-((S)-1-carbamoyl-2-phenyl-ethylcarbamoyl)-4-guanidino-butylcarbamoyl]-2-cyclohexyl-ethyl}-amide] had an EC50 of 2.9 µM. To `N=C(N)NCCC[C@H](NC(=O)[C@H](CC1CCCCC1)NC(=O)c1nnc(N)[nH]1)C(=O)N[C@@H](Cc1cccs1)C(N)=O` [5-Amino-1H-[1,2,4]triazole-3-carboxylic acid {(S)-1-[(S)-1-((S)-1-carbamoyl-2-thiophen-2-yl-ethylcarbamoyl)-4-guanidino-butylcarbamoyl]-2-cyclohexyl-ethyl}-amide] belongs 10.5 µM. With `N=C(N)NCCC[C@H](NC(=O)[C@H](CC1CCCCC1)NC(=O)c1nnc(NC(=O)C=Cc2ccccc2Cl)[nH]1)C(=O)N[C@@H](Cc1ccccc1)C(N)=O` [5-[(E)-3-(2-Chloro-phenyl)-acryloylamino]-1H-[1,2,4]triazole-3-carboxylic acid {(S)-1-[(S)-1-((S)-1-carbamoyl-2-phenyl-ethylcarbamoyl)-4-guanidino-butylcarbamoyl]-2-cyclohexyl-ethyl}-amide], the midpoint of the response, the EC50, lay at 1.1 µM.

`N=C(N)NCCC[C@H](NC(=O)[C@H](CC1CCCCC1)NC(=O)c1nnc(NC(=O)C=Cc2ccc(Cl)cc2)[nH]1)C(=O)N[C@@H](Cc1ccccc1)C(N)=O` [5-[(E)-3-(4-Chloro-phenyl)-acryloylamino]-1H-[1,2,4]triazole-3-carboxylic acid {(S)-1-[(S)-1-((S)-1-carbamoyl-2-phenyl-ethylcarbamoyl)-4-guanidino-butylcarbamoyl]-2-cyclohexyl-ethyl}-amide] had an EC50 of 55 µM.

For `COc1ccc(C=CC(=O)Nc2nnc(C(=O)N[C@@H](CC3CCCCC3)C(=O)N[C@@H](CCCNC(=N)N)C(=O)N[C@@H](Cc3ccccc3)C(N)=O)[nH]2)cc1` [5-[(E)-3-(4-Methoxy-phenyl)-acryloylamino]-1H-[1,2,4]triazole-3-carboxylic acid {(S)-1-[(S)-1-((S)-1-carbamoyl-2-phenyl-ethylcarbamoyl)-4-guanidino-butylcarbamoyl]-2-cyclohexyl-ethyl}-amide], the concentration for a half-maximal effect (EC50) came out at 5.6 µM. `N=C(N)NCCC[C@H](NC(=O)[C@H](CC1CCCCC1)NC(=O)c1nnc(NC(=O)C=Cc2ccc(C(F)(F)F)cc2)[nH]1)C(=O)N[C@@H](Cc1ccccc1)C(N)=O` [5-[(E)-3-(4-Trifluoromethyl-phenyl)-acryloylamino]-1H-[1,2,4]triazole-3-carboxylic acid {(S)-1-[(S)-1-((S)-1-carbamoyl-2-phenyl-ethylcarbamoyl)-4-guanidino-butylcarbamoyl]-2-cyclohexyl-ethyl}-amide] displayed an EC50 of 5 µM. `N=C(N)NCCC[C@H](NC(=O)[C@H](CC1CCCCC1)NC(=O)c1ccc(N)nc1)C(=O)N[C@@H](Cc1ccccc1)C(N)=O` [6-Amino-N-{(S)-1-[(S)-1-((S)-1-carbamoyl-2-phenyl-ethylcarbamoyl)-4-guanidino-butylcarbamoyl]-2-cyclohexyl-ethyl}-nicotinamide] yielded an EC50 of 1.2 µM.

Take `CC(C)C[C@H](NC(=O)[C@H](CC(C)C)NC(=O)[C@H](Cc1ccccc1)NC(=O)[C@@H](N)CO)C(=O)N[C@@H](CCCNC(=N)N)C(=O)N[C@@H](CC(N)=O)C(N)=O` [(S)-2-[(S)-2-((S)-2-{(S)-2-[(S)-2-((S)-2-Amino-3-hydroxy-propionylamino)-3-phenyl-propionylamino]-4-methyl-pentanoylamino}-4-methyl-pentanoylamino)-5-guanidino-pentanoylamino]-succinamide]: the response was half-maximal at 0.28 µM (EC50). To `N=C(N)NCCC[C@H](NC(=O)[C@H](CC1CCCCC1)NC(=O)C=Cc1cccnc1)C(=O)N[C@@H](Cc1ccccc1)C(N)=O` [(S)-2-[(S)-3-Cyclohexyl-2-((E)-3-pyridin-3-yl-acryloylamino)-propionylamino]-5-guanidino-pentanoic acid ((S)-1-carbamoyl-2-phenyl-ethyl)-amide] belongs 2.6 µM. Molecule `N=C(N)NCCC[C@H](NC(=O)[C@H](CC1CCCCC1)NC(=O)c1cc2ccccc2s1)C(=O)N[C@@H](Cc1ccccc1)C(N)=O` [Benzo[b]thiophene-2-carboxylic acid {(S)-1-[(S)-1-((S)-1-carbamoyl-2-phenyl-ethylcarbamoyl)-4-guanidino-butylcarbamoyl]-2-cyclohexyl-ethyl}-amide] had an EC50 of 8.3 µM. The same measure for `N=C(N)NCCC[C@H](NC(=O)[C@H](CC1CCCCC1)NC(=O)c1cc2ccccc2o1)C(=O)N[C@@H](Cc1ccccc1)C(N)=O` [Benzofuran-2-carboxylic acid {(S)-1-[(S)-1-((S)-1-carbamoyl-2-phenyl-ethylcarbamoyl)-4-guanidino-butylcarbamoyl]-2-cyclohexyl-ethyl}-amide]: 12.5 µM; for `N=C(N)NCCC[C@H](NC(=O)[C@H](CC1CCCCC1)NC(=O)c1ccc2c(c1)-c1ccccc1-2)C(=O)N[C@@H](Cc1ccccc1)C(N)=O` [Biphenylene-2-carboxylic acid {(S)-1-[(S)-1-((S)-1-carbamoyl-2-phenyl-ethylcarbamoyl)-4-guanidino-butylcarbamoyl]-2-cyclohexyl-ethyl}-amide]: 1.2 µM. The same measure for `N=C(N)NCCC[C@H](NC(=O)[C@H](CC1CCCCC1)NC(=O)c1ccc(Cl)nc1)C(=O)N[C@@H](Cc1ccccc1)C(N)=O` [N-{(S)-1-[(S)-1-((S)-1-Carbamoyl-2-phenyl-ethylcarbamoyl)-4-guanidino-butylcarbamoyl]-2-cyclohexyl-ethyl}-6-chloro-nicotinamide]: 4.6 µM; for `N=C(N)NCCC[C@H](NC(=O)[C@H](CC1CCCCC1)NC(=O)c1cccnc1)C(=O)N[C@@H](Cc1ccccc1)C(N)=O` [N-{(S)-1-[(S)-1-((S)-1-Carbamoyl-2-phenyl-ethylcarbamoyl)-4-guanidino-butylcarbamoyl]-2-cyclohexyl-ethyl}-nicotinamide] (Nicotinoyl-[Cha]-Arg-Phe-NH2): 2 µM.
